Results reported in US8372845B2, “Pyrazine derivatives as enac blockers” (Novartis AG, priority 2010, dated 2013).
Where a name gives a salt, the structure may show the parent alone.

Tests used:
[1] = biological target: T1, epithelial sodium channel (ENaC) (Homo sapiens, UniProt P37088+P51168+P51170); experiment: Short circuit current (ISC) measurements in Human Bronchial Epithelial cells (HBEC-ENaC); type: cell-based; conditions: inhibition of amiloride-sensitive ISC, HBECs at air-liquid interface, Ussing chamber, apical addition
T1 construct: host or cells: primary Human Bronchial Epithelial cells (HBECs), differentiated at air-liquid interface
T1 sequence (P37088 1-669): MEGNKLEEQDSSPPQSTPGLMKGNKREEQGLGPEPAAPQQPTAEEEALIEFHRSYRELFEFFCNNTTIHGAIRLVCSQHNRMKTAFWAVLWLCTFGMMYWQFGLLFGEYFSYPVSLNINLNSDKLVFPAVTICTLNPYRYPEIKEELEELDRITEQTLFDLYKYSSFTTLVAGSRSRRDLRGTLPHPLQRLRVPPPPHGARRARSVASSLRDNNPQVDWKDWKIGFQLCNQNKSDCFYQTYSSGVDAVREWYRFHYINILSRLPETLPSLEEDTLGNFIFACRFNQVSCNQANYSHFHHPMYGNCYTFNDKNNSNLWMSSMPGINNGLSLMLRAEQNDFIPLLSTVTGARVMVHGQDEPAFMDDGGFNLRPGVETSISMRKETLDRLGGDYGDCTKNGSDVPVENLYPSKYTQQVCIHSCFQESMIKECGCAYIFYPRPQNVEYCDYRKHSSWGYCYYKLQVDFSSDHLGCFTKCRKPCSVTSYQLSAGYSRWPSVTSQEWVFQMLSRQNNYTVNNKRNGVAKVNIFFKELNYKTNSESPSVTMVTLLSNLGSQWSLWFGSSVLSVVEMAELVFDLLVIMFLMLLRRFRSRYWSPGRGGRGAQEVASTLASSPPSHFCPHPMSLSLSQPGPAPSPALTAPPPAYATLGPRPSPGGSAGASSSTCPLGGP
T1 sequence (P51168 1-640): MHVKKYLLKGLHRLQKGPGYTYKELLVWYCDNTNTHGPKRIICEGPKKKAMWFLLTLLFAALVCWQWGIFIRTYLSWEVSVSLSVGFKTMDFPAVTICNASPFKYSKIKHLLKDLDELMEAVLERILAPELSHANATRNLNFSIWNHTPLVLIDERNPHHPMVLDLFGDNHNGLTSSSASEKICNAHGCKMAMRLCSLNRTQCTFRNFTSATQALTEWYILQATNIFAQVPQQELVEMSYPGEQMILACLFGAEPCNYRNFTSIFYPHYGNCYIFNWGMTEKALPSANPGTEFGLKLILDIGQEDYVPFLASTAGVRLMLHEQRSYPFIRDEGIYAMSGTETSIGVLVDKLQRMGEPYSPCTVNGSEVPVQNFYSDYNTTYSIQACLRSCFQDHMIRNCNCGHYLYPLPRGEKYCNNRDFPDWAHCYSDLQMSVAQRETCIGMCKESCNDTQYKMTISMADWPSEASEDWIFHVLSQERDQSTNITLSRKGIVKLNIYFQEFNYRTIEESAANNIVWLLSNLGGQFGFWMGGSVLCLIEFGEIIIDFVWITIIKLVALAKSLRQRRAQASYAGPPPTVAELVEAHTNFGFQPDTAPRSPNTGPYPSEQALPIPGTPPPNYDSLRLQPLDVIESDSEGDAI
T1 sequence (P51170 1-649): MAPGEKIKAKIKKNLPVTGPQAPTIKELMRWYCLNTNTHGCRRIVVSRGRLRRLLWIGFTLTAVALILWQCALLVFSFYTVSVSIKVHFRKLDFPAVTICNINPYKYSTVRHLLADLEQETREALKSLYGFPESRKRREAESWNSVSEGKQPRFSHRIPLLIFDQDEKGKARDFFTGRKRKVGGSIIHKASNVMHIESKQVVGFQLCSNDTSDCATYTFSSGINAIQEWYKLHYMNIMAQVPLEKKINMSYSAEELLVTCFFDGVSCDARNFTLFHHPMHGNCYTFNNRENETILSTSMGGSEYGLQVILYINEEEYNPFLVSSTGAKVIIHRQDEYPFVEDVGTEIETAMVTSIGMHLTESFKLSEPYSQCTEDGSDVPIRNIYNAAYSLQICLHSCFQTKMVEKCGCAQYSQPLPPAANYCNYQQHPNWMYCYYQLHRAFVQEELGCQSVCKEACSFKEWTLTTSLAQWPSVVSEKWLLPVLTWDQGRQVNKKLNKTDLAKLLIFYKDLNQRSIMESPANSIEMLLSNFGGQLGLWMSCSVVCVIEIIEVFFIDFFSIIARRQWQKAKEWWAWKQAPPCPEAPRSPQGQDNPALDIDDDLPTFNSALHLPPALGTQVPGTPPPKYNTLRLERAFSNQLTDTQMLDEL
Experimental: Human Bronchial Epithelial cells (HBECs) (Cambrex) were cultured under air-liquid interface conditions to provide a well differentiated mucociliary phenotype.
Medium was changed every 48 hours until cells were 90% confluent. […] Cells were maintained submerged for the first 7 days in culture, after which time they were exposed to an apical air interface for the remainder of the culture period. At this time, media was changed to DMEM:F12 media containing 2% v/v Ultroser G for the remainder of culture. Amphotericin B was removed from all media 3 feeds prior to use in the Ussing Chambers. Cells were used between days 7 and 21 after establishment of the apical-air interface. At all stages of culture, cells were maintained at 37° C. in 5% CO2 in an air incubator.
Short Circuit Current (ISC) Measurements
Snapwell inserts were mounted in Vertical Diffusion Chambers (Costar) and were bathed with continuously gassed Ringer solution (5% CO2 in O2; pH 7.4) maintained at 37° C. containing (in mM): 120 NaCl, 25 NaHCO3, 3.3 KH2PO4, 0.8 K2HPO4, 1.2 CaCl2, 1.2 MgCl2, and 10 glucose. The solution osmolarity was between 280 and 300 mOsmol/kg H2O for all physiological salt solutions used. Cells were voltage clamped to 0 mV (model EVC4000; WPI). RT was measured by applying a 1- or 2-mV pulse at 30-s intervals and calculating RT by Ohm's law. Data were recorded using a PowerLab workstation (ADInstruments).
Test compounds were prepared as a 10 mM stock solution in DMSO (95%). Serial 3-fold dilutions were freshly prepared in an appropriate vehicle (distilled H2O or Ringers solution). The initial concentration was added to the apical chamber as a 1000× concentrate in 5 μL, resulting in a final 1× concentration the 5 mL volume of the Ussing chamber. Subsequent additions of compound were added in a 3.3 μL volume of the 1000× serially diluted stock solution. At the completion of the concentration-response experiment, amiloride (10 μM) was added into the apical chamber to enable the total amiloride-sensitive current to be measured. An amiloride control IC50 was established at the start of each experiment.
Results are expressed as the mean % inhibition of the amiloride-sensitive ISC. […] Cell inserts were typically run in duplicate and the IC50 calculated on the mean % inhibition data.

[2] = Stability in human plasma; type: in vitro ADME; conditions: pooled human plasma (lithium heparin), 1 μM compound, 37° C., 1 hour incubation
Experimental: The stability of the compounds of the invention in human plasma may be measured as follows:
Stability in Human Plasma
Blood was taken from healthy volunteers in lithium heparin tubes and plasma was prepared by centrifugal separation of blood cells at 1500 g. Plasma from at least 3 individuals was pooled and used for compound stability determination.
Compounds were prepared in 100% DMSO at a concentration of 10 mM and serially diluted to a concentration of 100 μM. Incubations were performed at a final concentration of 1 μM and were initiated by addition of 3 μl of 100 μM compound stock solution into 297 μl plasma, pre-warmed in a water bath to 37° C., followed by brief vortex mixing. 50 μl aliquots of plasma were removed at 4 timepoints over a 1 hour incubation period and quenched immediately by protein precipitation achieved by addition of the aliquot of plasma to a pre-prepared 96 well plate containing 150 μl of acetonitrile containing an appropriate internal standard. Acetonitrile quenched samples were vortex mixed followed by centrifugation for 20 minutes at 1500 g to remove the precipitated proteins. Initial compound levels (at time=0 minutes) was established by spiking compound into pre-quenched plasma at the same concentration as used in the incubation. The supernatant was then removed, diluted 1:1 with water and analysed for compound remaining by liquid chromatography-tandem mass spectrometry (Waters Acquity HPLC, Applied Biosystems API4000). The plasma elimination rate constant of the compound was calculated by fitting the peak area ratio of compound:internal standard to an exponential decay function and the half life calculated by division of the natural log of 2 by the elimination rate constant (Microsoft Excel).

Structure (SMILES)	IC50 [1] [µM]	half-life at 1 μM [2] [min]
Nc1nc(N)c(C(=O)/N=C2\NCC3(CCN(C(=O)c4cccc(S(=O)(=O)NCCC(=O)OCC(=O)N5CCCC5C(F)(F)F)c4)CC3)N2)nc1Cl (stereo not drawn) [Example 4.0, 3-(3-{2-[(E)-3,5-Diamino-6-chloro-pyrazine-2-carbonylimino]-1,3,8-triaza-spiro[4.5]decane-8-carbonyl}-benzenesulfonylamino)-propionic acid 2-oxo-2-(2-trifluoromethyl-pyrrolidin-1-yl)-ethyl ester]	0.101	28
CCCN(CCC)C(=O)COC(=O)CCNS(=O)(=O)c1cccc(C(=O)N2CCC3(CC2)CN/C(=N\C(=O)c2nc(Cl)c(N)nc2N)N3)c1 [Example 1.0, 3-(3-{2-[(E)-3,5-Diamino-6-chloro-pyrazine-2-carbonylimino]-1,3,8-triaza-spiro[4.5]decane-8-carbonyl}-benzenesulfonylamino)-propionic acid dipropylcarbamoylmethyl ester succinate salt]	0.017	2
Nc1nc(N)c(C(=O)/N=C2\NCC3(CCN(C(=O)c4cccc(S(=O)(=O)NCCC(=O)OCC(=O)OC5CCCCC5)c4)CC3)N2)nc1Cl [Example 1.3, 3-(3-{2-[(E)-3,5-Diamino-6-chloro-pyrazine-2-carbonylimino]-1,3,8-triaza-spiro[4.5]decane-8-carbonyl}-benzenesulfonylamino)-propionic acid cyclohexyloxy carbonylmethyl ester]	0.003	4
Nc1nc(N)c(C(=O)/N=C2\NCC3(CCN(C(=O)c4cccc(S(=O)(=O)NCC5(C(=O)OCC(=O)N6CCCC6C(F)(F)F)CCC5)c4)CC3)N2)nc1Cl (stereo not drawn) [Example 5.2, 1-[(3-{2-[(E)-3,5-Diamino-6-chloro-pyrazine-2-carbonylimino]-1,3,8-triaza-spiro[4.5]decane-8-carbonyl}-benzenesulfonylamino)-methyl]-cyclobutanecarboxylic acid 2-oxo-2-(2-trifluoromethyl-pyrrolidin-1-yl)-ethyl ester]	0.019	39
Nc1nc(N)c(C(=O)/N=C2\NCC3(CCN(C(=O)CCc4ccc(OCC(=O)OCC(=O)OCc5ccccc5)cc4)CC3)N2)nc1Cl [Example 2.2, [4-(3-{2-[(E)-3,5-Diamino-6-chloro-pyrazine-2-carbonylimino]-1,3,8-triaza-spiro[4.5]dec-8-yl}-3-oxo-propyl)-phenoxy]-acetic acid benzyloxycarbonylmethyl ester]	0.012	–
CCN(CC)C(=O)COC(=O)COc1ccc(CCC(=O)N2CCC3(CC2)CN/C(=N\C(=O)c2nc(Cl)c(N)nc2N)N3)cc1 [Example 2.3, [4-(3-{2-[(E)-3,5-Diamino-6-chloro-pyrazine-2-carbonylimino]-1,3,8-triaza-spiro[4.5]dec-8-yl}-3-oxo-propyl)-phenoxy]-acetic acid diethylcarbamoylmethyl ester]	0.089	–
Nc1nc(N)c(C(=O)/N=C2\NCC3(CCN(C(=O)CCc4ccc(OCC(=O)OCCN5CCCCC5=O)c(Cl)c4)CC3)N2)nc1Cl [Example 4.1, [2-Chloro-4-(3-{2-[(E)-3,5-diamino-6-chloro-pyrazine-2-carbonylimino]-1,3,8-triaza-spiro[4.5]dec-8-yl}-3-oxo-propyl)-phenoxy]-acetic acid 2-(2-oxo-piperidin-1-yl)ethyl ester]	0.132	3
Nc1nc(N)c(C(=O)/N=C2\NCC3(CCN(C(=O)CCc4ccc(OCC(=O)OCC(=O)N5CCCCC5)cc4)CC3)N2)nc1Cl [Example 2.4, [4-(3-{2-[(E)-3,5-Diamino-6-chloro-pyrazine-2-carbonylimino]-1,3,8-triaza-spiro[4.5]dec-8-yl}-3-oxo-propyl)-phenoxy]-acetic acid 2-oxo-2-piperidin-1-yl-ethyl ester]	0.11	–
CN(CCO)C(=O)COC(=O)COc1ccc(CCC(=O)N2CCC3(CC2)CN/C(=N/C(=O)c2nc(Cl)c(N)nc2N)N3)cc1 [Example 1.1, [4-(3-{2-[(Z)-3,5-Diamino-6-chloro-pyrazine-2-carbonylimino]-1,3,8-triaza-spiro[4.5]dec-8-yl}-3-oxo-propyl)-phenoxy]-acetic acid [(2-hydroxy-ethyl)-methyl-carbamoyl]-methyl ester]	0.419	–
CN(C)C(=O)COC(=O)COc1ccc(CCC(=O)N2CCC3(CC2)CN/C(=N\C(=O)c2nc(Cl)c(N)nc2N)N3)cc1 [Example 1.4, [4-(3-{2-[(E)-3,5-Diamino-6-chloro-pyrazine-2-carbonylimino]-1,3,8-triaza-spiro[4.5]dec-8-yl}-3-oxo-propyl)-phenoxy]-acetic acid dimethylcarbamoylmethyl ester]	0.302	–
